From patent publication US20050249787A1, “Methods and compositions for reducing oxidative stress in an animal” (Nestec SA, priority 2004, published 2005)
Marks after values point to notes of the source that are not given here.

Legend:
[1] = Osteoarthritis diet study, plasma and synovial fluid markers and gait (Example 6); format: in vivo, dogs; details: 12 weeks
From the text: A diet supplemented with astaxanthin may be shown to reduce inflammation and associated pain in osteoarthritis. […] At 12 weeks of treatment, plasma and synovial fluid samples are taken from each animal and assayed for total antioxidant activity, and levels of malionaldehyde, prostaglandin, isoprostanes, MMPs and TIMPs. Additionally, the gait of the dogs may be assessed using standard force plate analyses.

[2] = tested on: NK cells; assay: Natural killer (NK) cell cytotoxicity from supplemented animals (Example 5); format: in vivo, dogs; details: diet containing astaxanthin vs control animals
Experimental: (§1) To assess the effect of astaxanthin supplementation on immune function, dogs may be fed a diet containing astaxanthin and/or Vitamin E for 16 weeks. The amount of astaxanthin used may be 0, 1, 5, 10, 20, and 40 mg per animal per day. Various assays may be performed to assess immune function.
In another assay, natural killer (NK) cell cytotoxicity is assessed for NK cells isolated from animals that are fed a diet including astaxanthin supplementation.

[3] = cited from earlier work
[4] = Antibody titers against an antigen (Example 5); format: in vivo, dogs; details: diet containing astaxanthin vs control animals
Experimental: as §1
Control animals and animals fed a diet containing astaxanthin may also be assessed for the robustness of the immune response against an antigen. For example, antibody titers against an antigen may be measured for control animals and animals fed a diet containing astaxanthin.

[5] = tested on: malondialdehyde; assay: Plasma malondialdehyde (MDA) in exercising sled dogs (HPLC); format: in vivo
Experimental: (§2) Three groups of twelve dogs (mixed breed Alaskan sled dogs (husky pointer crosses)) were fed commercially available Pro Plan® Performance chicken and rice formula dog food as a basal diet, and each group was fed either: a placebo consisting of about 0.5 g maltodextrin, about 2 mg astaxanthin, or about 400 mg Vitamin E (alpha-tocopherol). Pro Plan® dog food is available from Nestle Purina Pet Care Company in St. Louis, Missouri. The dogs were trained three times a week on an exercise wheel for a period of six weeks. On the sixth week, the dogs rested for four days and then exercised three days in a row. Blood samples were collected before exercise on day one, immediately after exercise on day three, and at 24 hours and 48 hours after exercise. Plasma from the blood samples was analyzed for concentrations of malondialdehyde, F-2 isoprostanes, Vitamin E, creatine kinase activity as well as oxygen radical absorption capacity (ORAC).
(§3) All the dogs were maintained on the same basal diet (Purina Pro Plan® Performance chicken and rice formula) for one month prior to the onset and the entire duration of the experiment. Each dog was fed as an individual to maintain an optimal body condition score of 4/10.
(§4) Thirty-six sled dogs were housed at the Nestle Purina facility in Salcha, Alaska. The dogs were divided into three groups of 12 dogs so that each group was alike in age, sex and ability distribution. A treatment was randomly assigned to each group by drawing from a hat. Group “A” was assigned about 400 mg Vitamin E/day, group “B” was assigned about 2 mg Astaxanthin/day and group “C” was assigned about 500mg maltodextrin as a placebo. The people responsible for feeding, care, and training of the dogs were blind as to the identity of treatments until the completion of the study. Dogs were treated for six weeks before the onset of testing. They were also trained lightly for two sessions per week during this time period. Training sessions consisted of walking at 14 kilometers per hour for 2 hours in a 40-foot diameter circle tethered to a dog-walking wheel.
(§5) The testing took place over a six day period. On day one, pre-exercise blood samples were drawn from all the dogs. On day two, the dogs ran twelve km while pulling an all terrain vehicle (ATV) weighing 500 pounds. On day three, the dogs walked 16 miles on the dog wheel. On day four, the dogs again pulled the ATV for a distance of 12 kilometers. Immediately after exercise on day four, blood samples were drawn. Additional blood samples were drawn again at 24 hours and 48 hours after exercise. This sampling schedule was designed to examine changes in the parameters measured during exercise and during recovery. Samples were obtained by jugular venipuncture and collected into evacuated glass tubes containing sodium EDTA as an anticoagulant. Once collected they were kept on ice for not more than 10 minutes before they were centrifuged at 10,000 revolutions per minute (RPM) in 4°C. for a period of 10 minutes. The plasma was transferred into freezer vials where the dead space was replaced with gaseous nitrogen to decrease further oxidation during storage. The vials were then capped and immediately quenched in liquid nitrogen. The vials were recovered from liquid nitrogen and stored at −70°C. until analyzed. Each plasma sample was analyzed for malondialdehyde concentration using a standard HPLC, F2-isoprostane concentration utilizing a mass spectrometer and standard ELISA, Vitamin E concentration utilizing a standard HPLC, and Oxidative Radical Absorbance Capacity (ORAC test kit, Oxford Co.
(§6) F2 isoprostane and CK data was evaluated using a two way ANOVA for repeated measures. Post hoc comparisons were made using a student's t test corrected for repeated measures by the Bonneferroni method. Statistical significance was set at p<0.05 . The other data was also evaluated using ANOVA. The abbreviation “se” used with respect to the data in the tables below refers to standard error.

[6] = Plasma total Oxidative Radical Absorptive Capacity (ORAC) in exercising sled dogs; format: in vivo; details: for ORAC (index of total anti-oxidant status) improvement by supplementation: any of the time periods measured
Experimental: as §2, §3, §4, §5, §6

[7] = Delayed-type hypersensitivity skin reaction (Example 5); format: in vivo, dogs; details: diet containing astaxanthin vs control animals
Experimental: as §1
Delayed-type hypersensitivity may also be assessed in animals given a diet supplemented with astaxanthin. In these assays, control animals and animals fed a diet containing astaxanthin are given cutaneous injections of saline, a mitogen or a vaccine of distemper virus. The animals are then assessed to measure the skin reactions to mitogen, virus and control. In animals fed a diet containing astaxanthin, the skin reactions are more robust for virus and mitogen than that found in control animals.

[8] = tested on: cataract formation; assay: In vivo cataract formation study, slit-lamp test (Example 4); parameters: species or system dogs; details: treatment with astaxanthin, optionally Vitamin E, lutein, zeaxanthin, zinc; vs control; two year study
From the text: In a model study, 40 dogs could be chosen and randomly allocated to either the control group or to a treatment group receiving AAFCO recommended levels of antioxidants. The treatment group would receive astaxanthin and may also receive one or more of Vitamin E, lutein, zeaxanthin and zinc.

[9] = tested on: peripheral blood mononuclear cells (PBMCs); assay: In vitro lymphoproliferation of stimulated PBMC (Example 5); format: cell-based, dogs; details: astaxanthin added to the media during stimulation, vs absence
[10] = tested on: creatine kinase; assay: Plasma creatine kinase (CK) in exercising sled dogs; format: in vivo
Experimental: as §2, §3, §4, §5, §6

[11] = dog, in vivo
Experimental: as §2, with “Blood samples were collected before exercise on day one, immediately after exercise on day three, and at 24 hours and 48 hours after exercise.” left out, “(ORAC). […]” for “(ORAC).”
The testing took place over a six day period. […] This sampling schedule was designed to examine changes in the parameters measured during exercise and during recovery. […] The vials were recovered from liquid nitrogen and stored at −70°C. until analyzed. Each plasma sample was analyzed for malondialdehyde concentration using a standard HPLC, F2-isoprostane concentration utilizing a mass spectrometer and standard ELISA, Vitamin E concentration utilizing a standard HPLC, and Oxidative Radical Absorbance Capacity (ORAC test kit, Oxford Co. […]

[12] = tested on: F2-isoprostane; assay: Plasma F2-isoprostane (F2I) in exercising sled dogs; format: in vivo
Experimental: as §2, §3, §4, §5, §6

[13] = tested on: canine lens epithelial cells; assay: Canine lens epithelial cells stressed with UV light (Example 3); format: cell-based; details: astaxanthin at physiological levels, UV light stress
From the text: An in vitro experiment may be performed using canine lens epithelial cells supplemented with astaxanthin at physiological levels.

SMILES | Plasma MDA (mean +/− se) ([5]; 24 hour post) | Plasma MDA (mean +/− se) ([5]; 48 hour post) | Plasma MDA (mean +/− se) ([5]; Post-ex) | Changes in Plasma MDA over time, Change from Baseline ([5]; Pre to 24 hour post) | Changes in Plasma MDA over time, Change from Baseline ([5]; Pre to 48 hour Post) | Changes in Plasma MDA over time, Change from Baseline ([5]; Pre to Post) | Plasma MDA (mean +/− se) ([5]; Pre-ex) | Plasma total ORAC (mean +/− se) ([6]; 24 hour post) | Plasma total ORAC (mean +/− se) ([6]; 48 hour post) | Plasma total ORAC (mean +/− se) ([6]; Post-ex) | Plasma total ORAC (mean +/− se) ([6]; Pre-ex) | ORAC (index of total anti-oxidant status) improvement by supplementation [6] | Plasma Creatine Kinase (mean +/− se) ([10]; 24 hour post) | Plasma Creatine Kinase (mean +/− se) ([10]; 48 hour post) | Plasma Creatine Kinase (mean +/− se) ([10]; Post-ex) | Plasma Creatine Kinase (mean +/− se) ([10]; Pre-ex) | Plasma Vitamin E concentration compared between treatment groups [11] | Plasma F2 Isoprostane concentration (mean +/− se) ([12]; 24 hour post) | Plasma F2 Isoprostane concentration (mean +/− se) ([12]; 48 hour post) | Plasma F2 Isoprostane concentration (mean +/− se) ([12]; Post-ex) | further results
CC1=C(/C=C/C(C)=C/C=C/C(C)=C/C=C/C=C(C)/C=C/C=C(C)/C=C/C2=C(C)C(=O)[C@@H](O)CC2(C)C)C(C)(C)C[C@H](O)C1=O [ATX, astaxanthin] | 0.95 | 1.44 | 1.58 | −0.485* | −0.004 | 0.135 | 1.45 | 5700 | 4800 | 7460 | 7980 | not improved | 171 | 158 | 152 | 109 | no significant difference | 90 | 66 | 52 | isoprostanes, total antioxidant activity and MMPs in plasma and synovial fluid ([1]; 1, 5, 10, 20, or 40 mg per animal per day): decrease; gait, force plate analyses ([1]; compared to controls): significant improvement in gait; NK cytotoxicity [2]: significantly increased; in vitro oxygen radical absorptive capacity relative to Vitamin E [3]: 4 times; antibody titers against an antigen [4]: higher antibody titers; Plasma malondialdehyde compared with placebo and Vitamin E groups ([5]; 24 hours post exercise): lower than either the placebo value or the Vitamin E value; skin reactions to virus and mitogen (delayed-type hypersensitivity) [7]: more robust; cataract formation and severity, slit-lamp test [8]: control group has significantly more cataract formation; proliferation of PBMC [9]: increases proliferation of cells significantly more; CK values compared with the Vitamin E group ([10]; all time periods but 24 hours post-exercise): lower; Plasma F2 Isoprostane concentration (mean +/− se) ([12]; Pre-ex): 167; F2I values compared to the placebo group ([12]; immediately post-exercise and at 24 hours post-exercise): lower; cell death [13]: significantly less cell death; free radical formation and lipid peroxidation products [13]: significantly reduce
Cc1c(C)c2c(c(C)c1O)CC[C@@](C)(CCC[C@H](C)CCC[C@H](C)CCCC(C)C)O2 [Vitamin E, alpha-tocopherol, reference compound] | 1.44 | 1.44 | 1.17 | −0.071 | −0.069 | −0.336* | 1.51 | 7590 | 4840 | 5850 | 7480 | not improved | 184 | 204 | 208 | 139 | greatest | 130 | 78 | 223 | malondialdehyde concentrations compared to the placebo group ([5]; during exercise): decreased; F2I value compared to the placebo value ([12]; 24 hour post-exercise): lower; Plasma F2 Isoprostane concentration (mean +/− se) ([12]; Pre-ex): 144
